Tests used:
Assay in all cases: relative viability (nuclei count vs DMSO), 5 days (fraction); higher = more cells survive
[1] = compound: CCN1C(=O)C2=CC(=C(N=C2N(C1=O)C3CC3)N)C(=O)N + Cc1nc(Nc2ncc(C(=O)Nc3c(C)cccc3Cl)s2)cc(N2CCN(CCO)CC2)n1 [Dasatinib] (partner 0.075 µM)
How it was run: (§1)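 Lung cancer cell lines were pin-tool dosed in 1536-well plates on the day after seeding, with either a lone drug or a fixed anchor-drug dose plus five library-drug doses (not always all listed) in √10 steps. Nuclei were counted on 4× images after 5 days. Relative viability is the ratio of treated-well to vehicle-well nuclei counts, with each value a median of duplicate plates.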

[2] = compound: CCN1C(=O)C2=CC(=C(N=C2N(C1=O)C3CC3)N)C(=O)N + N=C(N)NC(=N)NCCc1ccccc1 [Phenformin] (partner 250 µM)
How it was run: as §1

[3] = compound: CCN1C(=O)C2=CC(=C(N=C2N(C1=O)C3CC3)N)C(=O)N + Cc1nc(NC(=O)N2CCC[C@H]2C(N)=O)sc1-c1ccnc(C(C)(C)C(F)(F)F)c1 [Alpelisib] (partner 2 µM)
How it was run: as §1

[4] = compound: CCN1C(=O)C2=CC(=C(N=C2N(C1=O)C3CC3)N)C(=O)N + CS(=O)(=O)N1CCN(Cc2cc3nc(-c4cccc5[nH]ncc45)nc(N4CCOCC4)c3s2)CC1 [Pictilisib] (partner 1 µM)
How it was run: as §1

[5] = compound: CCN1C(=O)C2=CC(=C(N=C2N(C1=O)C3CC3)N)C(=O)N + CS(=O)(=O)CCNCc1ccc(-c2ccc3ncnc(Nc4ccc(OCc5cccc(F)c5)c(Cl)c4)c3c2)o1 [Lapatinib] (partner 2 µM)
How it was run: as §1

Cell Line	relative viability ([1]; first compound 0.253 µM)	relative viability ([1]; first compound 0.8 µM)	relative viability ([1]; first compound 2.53 µM)	relative viability ([1]; first compound 8 µM)	relative viability ([2]; first compound 0.253 µM)	relative viability ([2]; first compound 0.8 µM)	relative viability ([2]; first compound 2.53 µM)	relative viability ([2]; first compound 8 µM)	relative viability ([3]; first compound 0.253 µM)	relative viability ([3]; first compound 0.8 µM)	relative viability ([3]; first compound 2.53 µM)	relative viability ([3]; first compound 8 µM)	relative viability ([4]; first compound 0.253 µM)	relative viability ([4]; first compound 0.8 µM)	relative viability ([4]; first compound 2.53 µM)	relative viability ([4]; first compound 8 µM)	relative viability ([5]; first compound 0.253 µM)	relative viability ([5]; first compound 0.8 µM)	relative viability ([5]; first compound 2.53 µM)	relative viability ([5]; first compound 8 µM)
NCI-H460	0.5	0.541	0.592	0.452	0.519	0.571	0.476	0.499	0.471	0.433	0.467	0.466	0.372	0.339	0.461	0.341	1.04	1.07	0.902	1.02
NCI-H520	0.17	0.222	0.222	0.31	0.582	0.643	0.59	0.508	0.89	0.765	0.962	0.923	0.273	0.302	0.317	0.27	0.898	0.907	0.957	0.941
NCI-H596	0.625	0.569	0.519	0.548	0.707	0.72	0.769	0.628	0.491	0.436	0.474	0.438	0.449	0.36	0.454	0.403	1.07	1.02	1.09	1.06
NCI-H647	0.182	0.176	0.172	0.16	0.418	0.519	0.428	0.637	1.11	1.17	1.14	1.07	0.424	–	0.432	0.462	1.09	1.13	0.992	1.13
NCI-H650	0.434	0.349	0.424	0.373	0.502	0.388	0.448	0.433	1.22	1.06	1	1.02	0.997	0.922	0.684	0.893	1.03	0.883	1.07	0.872
NCI-H661	0.911	0.911	0.898	0.895	0.287	0.302	0.267	0.278	0.711	0.78	0.742	0.778	0.401	0.368	0.45	0.395	0.526	0.631	0.428	0.5
NCI-H727	0.352	0.323	0.333	0.422	0.625	0.455	0.459	0.666	0.568	0.572	0.598	0.658	0.441	0.375	0.428	0.508	0.925	0.69	0.814	0.857
NCI-H838	0.29	0.296	0.316	0.265	0.607	0.589	0.551	0.545	1.02	0.985	0.934	0.906	0.468	0.41	0.437	0.503	0.948	1.02	0.916	0.896
NCI-H1355	0.728	0.717	0.701	0.725	0.463	0.473	0.451	0.436	0.829	0.949	0.787	0.853	0.324	0.513	0.419	0.505	1.08	1.06	0.998	1.01
NCI-H1395	0.395	0.392	0.405	0.405	0.451	0.428	0.464	0.439	0.958	1.04	1.01	0.976	0.611	0.583	0.636	0.63	1.04	0.915	1.1	0.893
NCI-H1437	0.404	0.367	0.464	0.418	0.269	0.363	0.334	0.276	0.956	1.12	0.973	1.04	0.433	0.416	0.445	0.465	0.818	0.794	0.829	0.838
NCI-H1563	0.467	0.41	0.46	0.422	0.653	0.611	0.651	0.639	0.983	0.982	0.913	0.783	0.648	0.618	0.728	0.616	0.808	0.91	0.95	0.885
NCI-H1651	0.454	0.465	0.357	0.381	0.297	0.326	0.328	0.313	0.86	0.948	0.875	0.957	0.552	0.581	0.461	0.595	0.749	0.78	0.936	0.834
NCI-H1666	–	0.828	0.877	0.762	–	0.562	0.58	0.558	0.985	0.77	0.969	1.09	0.42	0.377	0.391	0.359	0.831	0.495	0.633	0.736
NCI-H1734	0.437	0.459	0.425	0.453	0.381	0.365	0.384	0.361	0.658	0.669	0.688	0.738	0.456	0.495	0.44	0.473	1.08	1.07	1.03	1.1
NCI-H1755	0.411	0.506	0.459	0.45	0.647	0.607	0.381	0.665	0.946	0.922	0.946	0.913	0.431	0.405	0.452	0.488	0.999	1.09	0.779	1.02
